What follows are compounds tested on glycogen synthase (assay: Glycogen Synthase (GS) Assay, in vitro activation of glycogen synthase). Conditions: compound concentration needed to stimulate 200% of the enzyme activity; coupled pyruvate kinase/lactate dehydrogenase assay, absorbance at 340 nm, 37° C.
Format: biochemical
Method: Twelve μl per well of substrate solution containing glycogen (4.32 mg/ml), 21.6 mM UDP-glucose, 21.6 mM phospho(enol)pyruvate and 2.7 mM NADH in 30 mM glycylglycine, pH 7.3 buffer is added into a polystyrene 384-well assay plate (BD Biosciences). Compound solution (8 μl/well) at various concentrations (0-57 μM) in 30 mM glycylglycine, pH 7.3, 40 mM KCl, 20 mM MgCl2 plus 9.2% DMSO are added to the assay plate (columns 5-24). Enzyme solution (12 μl/well) containing glycogen synthase (16.88 μg/ml), pyruvate kinase (0.27 mg/ml), lactate dehydrogenase (0.27 mg/ml) in 50 mM Tris-HCl, pH 8.0, 27 mM DTT and bovine serum albumin (BSA, 0.2 mg/ml) is added to the assay plate (columns 3-24). As a blank control, enzyme solution without glycogen synthase is added into the top half wells of columns 1-2. To the bottom half wells of columns 1-2 are added a known activator, glucose 6-phosphate (18.9 mM) in addition to the enzyme solution. The reaction mixture is incubated at 37° C. The assay plate is then read for absorbance at 340 nm on a Tecan Ultra reader every 3 minutes up to a total of 30 minutes.
(§1) The enzyme activity (with or without compound) is calculated by the reaction rate and represented by the optical density change (ΔOD) per minute. Percent stimulation of glycogen synthase activity by a compound at various concentrations is calculated by the following formula: % stimulation=100*Rs/Rt,
where Rs is the reaction rate of the enzyme in the presence of compound and Rt is the reaction rate of the enzyme in the absence of compound.
SC2.0 is defined as the compound concentration that is needed to stimulate 200% of the enzyme activity.
Glycogen Synthase (GS) Assay
The following tests were carried out in order to determine the activity of the compounds of formula (I).
Twelve μl per well of substrate solution containing glycogen (4.32 mg/ml), 21.6 mM UDP-glucose, 21.6 mM phospho(enol)pyruvate and 2.7 mM NADH in 30 mM glycylglycine, pH 7.3 buffer was added into a polystyrene 384-well assay plate (BD Biosciences). Compound solution (8 μl/well) at various concentrations (0-57 μM) in 30 mM glycylglycine, pH 7.3, 40 mM KCl, 20 mM MgCl2 plus 9.2% DMSO were added to the assay plate (columns 5-24). Enzyme solution (12 μl/well) containing glycogen synthase (16.88 μg/ml), pyruvate kinase (0.27 mg/ml), lactate dehydrogenase (0.27 mg/ml) in 50 mM Tris-HCl, pH 8.0, 27 mM DTT and bovine serum albumin (BSA, 0.2 mg/ml) was added to the assay plate (columns 3-24). As a blank control, enzyme solution without glycogen synthase was added into the top half wells of columns 1-2. To the bottom half wells of columns 1-2 were added a known activator, glucose 6-phosphate (18.9 mM) in addition to the enzyme solution. The reaction mixture was incubated at 37° C. The assay plate was then read for absorbance at 340 nm on a Tecan Ultra reader every 3 minutes up to a total of 30 minutes.
as §1, with “was” for “is”, “stimulation=100*Rs/Rt, […]” for “stimulation=100*Rs/Rt,”
Work on `O=C(O)c1ccc(COc2ccc(-c3ccc(Cl)cc3)cc2)o1` [Example 12, 5-(4′-Chloro-biphenyl-4-yloxymethyl)-furan-2-carboxylic acid] yielded an SC2.0 of 0.8 µM. Work on `COc1ccc(-c2ccc(OCc3cccc(C(=O)O)c3)cc2)cc1` [Example 7, 3-(4′-Methoxy-biphenyl-4-yloxymethyl)-benzoic acid] yielded an SC2.0 of 9.6 µM. `O=C(O)c1csc(COc2ccc(-c3ccc(Cl)cc3)cc2)n1` [Example 26, 2-(4′-Chloro-biphenyl-4-yloxymethyl)-thiazole-4-carboxylic acid] was tested, and the SC2.0 was 3.1 µM. For `O=C(O)c1ccc(COc2ccc(-c3ccccc3)cc2)s1` [5-(Biphenyl-4-yloxymethyl)-thiophene-2-carboxylic acid], the SC2.0 was 12.7 µM. In the case of `O=C(O)[C@H]1CCCN1C(=O)c1ccc(COc2ccc(-c3ccccc3)cc2)o1` [1-[5-(Biphenyl-4-yloxymethyl)-furan-2-carbonyl]-L-pyrrolidine-2-carboxylic acid], the SC2.0 is reported as 1.4 µM. Work on `O=C(O)c1ccccc1COc1ccc(-c2ccccc2)cc1Cl` [Example 15, 2-(3-Chloro-biphenyl-4-yloxymethyl)-benzoic acid] yielded an SC2.0 of 10.3 µM. Work on `O=C(O)c1ccc(COc2cccc(-c3ccccc3)c2)o1` [Example 9, 5-(Biphenyl-3-yloxymethyl)-furan-2-carboxylic acid] yielded an SC2.0 of 14.9 µM. `O=C(NC1(C(=O)O)CCCC1)c1ccc(COc2ccc(-c3ccccc3)cc2)o1` [Example 34, 1-{[5-(Biphenyl-4-yloxymethyl)-furan-2-carbonyl]-amino}-cyclopentane carboxylic acid] gave an SC2.0 of 16.3 µM. With `O=C(O)c1cccc(COc2ccc(-c3ccc(Br)cc3)cc2)c1` [Example 4, 3-(4′-Bromo-biphenyl-4-yloxymethyl)-benzoic acid] the SC2.0 was 3.8 µM. `O=C(O)c1csc(COc2ccc(-c3ccccc3)cc2Cl)n1` [Example 22, 2-(3-Chloro-biphenyl-4-yloxymethyl)-thiazole-4-carboxylic acid] gave an SC2.0 of 14.9 µM.

From patent US7842825B2, “Biaryloxymethylarenecarboxylic acids as glycogen synthase activator” (Hoffmann-La Roche Inc., priority 2003, dated 2010)
